Where two headings read alike, the source gives them in different places. Square brackets hold non-standard residues; d marks the D form. Peptide text beside a SMILES is read from it. * marks the point of attachment. NHOctadecyl = CCCCCCCCCCCCCCCCCCN*; Cya = N[C@@H](CS(=O)(=O)O)C(=O)O; NMeF = CN[C@@H](Cc1ccccc1)C(=O)O; hPhe = N[C@@H](CCc1ccccc1)C(=O)O; Cha = N[C@@H](CC1CCCCC1)C(=O)O; Phg = N[C@H](C(=O)O)c1ccccc1; X8 = CCCCCCCCCCCCCCCCCCO*; Piperidide = C1CCN(*)CC1; X7 = O=C(CO*)OCc1ccccc1; PhAc = O=C(Cc1ccccc1)*; ODecyl = CCCCCCCCCCO*; X1 = CCCCCCCCCCCCCCO*; X4 = CCN(CC)C(=O)CO*; Bz = O=C(c1ccccc1)*; OBn = c1ccc(CO*)cc1; X5 = CCCCCCCCCCCCO*; Ahx = NCCCCCC(=O)O

The text below walks through data of patent US5821231A, “CS-1 peptidomimetics, compositions and methods of using same” (Cytel Corporation, priority 1995, dated 1998).

The experiment addresses VLA-4 (Homo sapiens, UniProt P05556+P13612). The experiment can be described thus: In vitro binding assay: 51Cr-labeled Jurkat cells to solid phase-bound CS-1 compound (SEQ ID NO:1). To be noted: for Relative Potency (prodrug compound): before the prodrug compound is enzymatically converted to an active form, relative to SEQ ID NO:3 = 1. Format: cell-based. On the set-up: inflammatory cells that contain the VLA-4 receptor [Jurkat cells; host or cells: Jurkat cells (human T lymphoblastic line). As to the method:
Binding inhibition is measured here as a concentration of compound that inhibits one-half the binding between a standard number of Jurkat cells and a standard amount of CS-1 compound bound to the surface of a microtiter plate well. Those concentrations are conveniently expressed as IC50 values, smaller numbers indicating a lower concentration required to inhibit 50 percent binding and therefore greater potency. Further specifics of this assay are provided hereinafter.
Jurkat cells (ATCC TIB 152), a human T lymphoblastic line, labeled with ^51 chromium were used to assay in vitro binding inhibition provided by various compounds discussed herein.
The plates were prepared as follows: The 25-mer CS-1 compound (SEQ ID NO:1) dissolved at 0.5-1 μg/ml in a buffer of 0.1M NaHCO3 at pH 9.5 that also contained 10 μg/ml of bovine serum albumin (BSA) or a conjugate of the CS-1 compound linked to ovalbumin (CS-1-OVA) dissolved at 1-2.5 μg/ml in the same buffer was used as the substrate. Each well of the microtiter plates was coated with 50 μl of substrate or buffer alone for controls. The wells were permitted to dry out completely and were then rinsed twice with PBS at pH 7.4. Non-specific binding sites of each well were then blocked using 200 μl per well of RPMI/1 percent BSA for two hours at room temperature.
Jurkat cells (3-5×10^6 cells) were placed into a 15 ml Falcon™ round-bottom tube with a cap. The tube was centrifuged, and the extra medium was then removed.
Two hundred microliters of a ^51 Cr labeling solution were added to the centrifuged cells and maintained in contact with the cells for 90-120 minutes in a warm room. […] Longer contact times provide a greater amount of labeling but lower cell viability.
The labeled cells are washed with (i) complete medium, (ii) 1 mM EDTA/PBS and then (iii) RPM1/1 percent BSA free of serum components. The cells are centrifuged after each washing. The cells are finally resuspended in serum-free RPMI/1 percent BSA at a concentration of 1×10^6 viable cells/ml, which provides a concentration that is diluted by one-half in the assay.
Inhibitor compounds are prepared as stock solutions at 20 mg/ml in DMSO in 1.5 ml cryogenic screwcap vials, and were stored at -70° C. Using Flow™ round-bottom or V-bottom microtiter plates, the inhibitor compounds were prepared at twice the assay concentration in RPMI/1 percent BSA at 60 μl/well.
Four initial dilutions were typically used.
The ^51 Cr-labeled cells ([…] at 60 μl/well) were then admixed with the diluted compound solutions. The admixtures were maintained at room temperature (about 22° C.) for 30 minutes.
One hundred microliters of each inhibitor compound/cell admixture were transferred to the substrate-coated wells. This was done in triplicate for each dilution. The resulting plates were incubated for 30 minutes at 37° C. and then washed gently three times with RPMI/1 percent BSA at 200 μl/well. Binding was observed microscopically, particularly after the second wash.
The bound cells were then lysed by the addition of a 0.5 percent solution of sodium dodecylsulfate in water at 100 μl/well. The resulting solutions were then processed for counting and calculation of IC50 values following usual procedures.
The data of Table 1 are normalized to the binding of SEQ ID NO: 3. […] Multiple assays for the same compound were averaged.

Setting [1] is: binding inhibition potency (IC50) relative to standard compound of SEQ ID NO:3 = 1, about one-tenth or less assigned zero.

Chain of VLA-4 (P13612 34-1032): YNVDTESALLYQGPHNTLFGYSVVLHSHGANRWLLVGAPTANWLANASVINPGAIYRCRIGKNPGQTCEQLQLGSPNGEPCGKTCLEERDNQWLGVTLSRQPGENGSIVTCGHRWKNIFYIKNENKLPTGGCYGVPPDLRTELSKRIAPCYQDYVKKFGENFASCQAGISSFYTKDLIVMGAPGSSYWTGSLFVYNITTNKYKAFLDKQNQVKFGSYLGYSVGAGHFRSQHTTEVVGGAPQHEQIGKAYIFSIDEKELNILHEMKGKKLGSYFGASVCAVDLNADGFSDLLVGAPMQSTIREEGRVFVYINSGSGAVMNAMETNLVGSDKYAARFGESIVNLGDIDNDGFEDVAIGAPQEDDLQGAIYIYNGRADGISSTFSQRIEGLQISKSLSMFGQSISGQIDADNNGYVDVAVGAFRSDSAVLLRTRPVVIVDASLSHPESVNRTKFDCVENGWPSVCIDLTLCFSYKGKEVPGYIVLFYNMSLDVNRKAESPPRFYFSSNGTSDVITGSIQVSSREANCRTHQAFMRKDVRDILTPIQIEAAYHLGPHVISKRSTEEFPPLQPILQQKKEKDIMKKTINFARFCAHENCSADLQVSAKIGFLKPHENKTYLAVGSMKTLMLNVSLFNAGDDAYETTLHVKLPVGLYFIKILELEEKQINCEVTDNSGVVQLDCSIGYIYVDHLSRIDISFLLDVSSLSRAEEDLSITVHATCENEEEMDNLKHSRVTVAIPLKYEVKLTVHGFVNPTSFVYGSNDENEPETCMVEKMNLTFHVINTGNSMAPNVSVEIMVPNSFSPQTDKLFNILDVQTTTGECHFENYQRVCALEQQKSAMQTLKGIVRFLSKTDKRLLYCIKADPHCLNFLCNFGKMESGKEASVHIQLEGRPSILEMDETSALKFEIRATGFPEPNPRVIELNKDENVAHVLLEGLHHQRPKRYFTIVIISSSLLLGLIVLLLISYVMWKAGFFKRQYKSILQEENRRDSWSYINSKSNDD
Chain of VLA-4 (P05556 21-798): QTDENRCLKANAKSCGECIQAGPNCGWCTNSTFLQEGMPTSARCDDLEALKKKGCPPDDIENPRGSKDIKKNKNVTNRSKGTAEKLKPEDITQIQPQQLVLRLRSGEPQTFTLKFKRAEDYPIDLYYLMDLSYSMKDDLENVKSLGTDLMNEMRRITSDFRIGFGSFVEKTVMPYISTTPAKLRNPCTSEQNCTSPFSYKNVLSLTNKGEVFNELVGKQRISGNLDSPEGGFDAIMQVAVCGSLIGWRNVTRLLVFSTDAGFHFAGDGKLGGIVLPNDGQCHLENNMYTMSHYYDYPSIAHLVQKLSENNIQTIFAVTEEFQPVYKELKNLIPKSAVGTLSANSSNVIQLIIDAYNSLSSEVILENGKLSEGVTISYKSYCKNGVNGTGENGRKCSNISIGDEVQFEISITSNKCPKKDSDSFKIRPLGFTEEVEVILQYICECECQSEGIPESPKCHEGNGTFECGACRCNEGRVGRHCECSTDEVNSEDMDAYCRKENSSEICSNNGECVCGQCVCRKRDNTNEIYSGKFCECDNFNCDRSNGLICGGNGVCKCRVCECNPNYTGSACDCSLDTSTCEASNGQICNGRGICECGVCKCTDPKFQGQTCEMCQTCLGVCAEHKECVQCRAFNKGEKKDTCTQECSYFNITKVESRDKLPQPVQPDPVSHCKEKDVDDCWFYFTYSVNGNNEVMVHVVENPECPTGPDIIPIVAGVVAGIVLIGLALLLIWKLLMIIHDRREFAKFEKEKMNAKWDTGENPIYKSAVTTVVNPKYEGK

Regarding `CC(C)C[C@H](NC(=O)Cc1ccccc1)C(=O)N[C@@H](CS)C(=O)N[C@@H](Cc1ccccc1)C(=O)N1CCC[C@@H]1C(N)=O` [896.59] (PhAc-LCF[dP]-NH2), under setting [1], the “Relative Potency” value was determined as 0. `CC(C)C[C@H](NC(=O)Cc1ccccc1)C(=O)NC(CC(=O)O)(CC(=O)O)C(=O)N[C@@H](Cc1ccccc1)C(=O)N1CCCCC1` [1026.01]: the “Relative Potency” value under setting [1] was determined as 0.

In the case of `CC(C)C[C@H](NC(=O)Cc1ccccc1)C(=O)N[C@@H](CC(=O)O)C(=O)N[C@@H](Cc1ccccc1)C(=O)NCCCO` [1051.05], the “Relative Potency” value under setting [1] is 25.

For `CC(C)C[C@H](NC(=O)Cc1ccccc1)C(=O)N[C@@H](CP(=O)(O)O)C(=O)N[C@@H](Cc1ccccc1)C(=O)N1CCCCC1` [1026.07], the “Relative Potency” value under setting [1] came to 0. On to `CC(C)C[C@H](NC(=O)Cc1ccccc1)C(=O)N[C@@H](CC(=O)O)C(=O)N[C@@H](Cc1ccccc1)C(=O)N1CCN(CCOCCO)CC1` [1111.07], for which the “Relative Potency” value under setting [1] is reported as 510.

Regarding `CC(C)C[C@H](NC(=O)Cc1ccccc1)C(=O)N[C@@H](CC(=O)O)C(=O)N[C@@H](Cc1ccccc1)C(=O)N1CCSCC1` [1111.02], the “Relative Potency” value under setting [1] was determined as 450. As for `CCN(CC)C(=O)COC(=O)C[C@H](NC(=O)[C@H](CC(C)C)NC(=O)Cc1ccccc1)C(=O)N[C@@H](Cc1ccccc1)C(=O)N1CCC[C@@H]1C(N)=O` [1068.13] (PhAc-LD(X4)F[dP]-NH2), the “Relative Potency (prodrug compound)” value is 0. Regarding `CCCCCCCCCCCCCCCCCCNC(=O)CCCCCNC(=O)[C@@H]1CCCN1C(=O)[C@H](Cc1ccccc1)NC(=O)[C@H](CC(=O)O)NC(=O)[C@H](CC(C)C)NC(=O)Cc1ccccc1` [1068.01, phenylacetyl-Leu-Asp-Phe-Pro-NH(CH2)5 C (O)NHC18 H37] (PhAc-LDFP[Ahx]-NHOctadecyl), the “Relative Potency (prodrug compound)” value is “.91”. `NC(=O)[C@H]1CCCN1C(=O)[C@H](Cc1ccccc1)NC(=O)[C@H](CC(=O)O)NC(=O)CCCCC1CCSS1` (stereo partly drawn) [1056.09]: the “Relative Potency” value under setting [1] amounted to 1.1. As to `CCOC(=O)C[C@H](NC(=O)[C@H](CC(C)C)NC(=O)Cc1ccccc1)C(=O)N[C@@H](Cc1ccccc1)C(=O)N1CCC[C@@H]1C(N)=O` [1190.01] (PhAc-LD(OEt)F[dP]-NH2), the “Relative Potency (prodrug compound)” value was found to be 0. As for `CC(C)CN(CC(=O)Nc1ccccc1)C(=O)CN(CC(=O)O)C(=O)CN(Cc1ccccc1)C(=O)C1CCCC1` [1032.02], under setting [1], the “Relative Potency” value is on record as “.63”.

Turning to `CC(C)C[C@H](NC(=O)Cc1ccccc1)C(=O)N[C@@H](CC(=O)OCc1ccccc1)C(=O)N[C@@H](Cc1ccccc1)C(=O)N1CCC[C@@H]1C(N)=O` [1068.07] (PhAc-LD(OBn)F[dP]-NH2), the “Relative Potency (prodrug compound)” value amounted to 0. With `CC(C)C[C@H](NC(=O)Cc1ccccc1)C(=O)NC(C(=O)O)C(=O)N[C@@H](Cc1ccccc1)C(=O)N1CCCCC1` (stereo partly drawn) [1026.02], the “Relative Potency” value under setting [1] worked out at 0.

As for `CC(C)C[C@H](NC(=O)Cc1ccccc1)C(=O)N[C@@H](CC(=O)O)C(=O)N1C(=O)N(Cc2ccccc2)C(=O)[C@H]1Cc1ccccc1` [1047.07], under setting [1], the “Relative Potency” value is “.38”. As for `CC(C)C[C@@H](CN[C@@H](CC(=O)O)C(=O)N[C@@H](Cc1ccccc1)C(=O)N1CCCCC1)NC(=O)Cc1ccccc1` [1041.01], the “Relative Potency” value under setting [1] is 0. On to `CC(C)C[C@H](NC(=O)Cc1ccccc1)C(=O)N[C@@H](CS(N)(=O)=O)C(=O)N[C@@H](Cc1ccccc1)C(=O)N1CCCCC1` [1026.08], for which, under setting [1], the “Relative Potency” value was determined as 0. On the same count and under the same terms, under `CC(C)C[C@H](NC(=O)Cc1ccccc1)C(=O)N[C@@H](CC(=O)O)C(=O)N[C@@H](Cc1ccccc1)C(N)=O` [997.12] (PhAc-Leu-Asp-Phe-NH2) stands “.45”. Take `CCCCCCCCCCCCCCOC(=O)C[C@H](NC(=O)[C@H](CC(C)C)NC(=O)Cc1ccccc1)C(=O)N[C@@H](Cc1ccccc1)C(=O)N1CCC[C@@H]1C(N)=O` [1068.11] (PhAc-LD(X1)F[dP]-NH2): the “Relative Potency (prodrug compound)” value worked out at 0. With `CC(C)C[C@H](NC(=O)Cc1ccccc1)C(=O)N[C@@H](CC(=O)O)C(=O)NC1CCCCN(CC(N)=O)C1=O` (stereo partly drawn) [1057.06], the “Relative Potency” value under setting [1] is 97.

For `O=C(O)CC(C(=O)N[C@@H](Cc1ccccc1)C(=O)N1CCCCC1)N1CC[C@H](NC(=O)Cc2ccccc2)C1=O` (stereo partly drawn) [1057.01], under setting [1], the “Relative Potency” value is listed as “.88”. Regarding `CCCCCCCCCCCCCCCCCC(=O)OC1CCN(C(=O)[C@H](Cc2ccccc2)NC(=O)[C@H](CC(=O)O)NC(=O)[C@H](CC(C)C)NC(=O)Cc2ccccc2)CC1` [1068.05], the “Relative Potency (prodrug compound)” value worked out at 0.63. Consider `CC(C)C[C@H](NC(=O)Cc1ccccc1)C(=O)N[C@@H](CC(=O)O)C(=O)NC1Cc2ccccc2N(CCN2CCOCC2)C1=O` (stereo partly drawn) [997.18], for which, under setting [1], the “Relative Potency” value is listed as 20.

Take `CC(C)C[C@H](NC(=O)Cc1ccccc1)C(=O)N[C@@H](CC(=O)OCC(=O)OCc1ccccc1)C(=O)N[C@@H](Cc1ccccc1)C(=O)N1CCC[C@@H]1C(N)=O` [1067.01] (PhAc-LD(X7)F[dP]-NH2): the “Relative Potency (prodrug compound)” value is “.97”.

Regarding `CC(C)[C@@H]1CC[C@@H](C)C[C@H]1OCC(=O)N[C@@H](CC(=O)O)C(=O)N[C@@H](Cc1ccccc1)C(=O)N1CCC[C@@H]1C(N)=O` [1056.06], the “Relative Potency” value is on record as 0. As for `NC(=O)[C@H]1CCCN1C(=O)[C@H](Cc1ccccc1)NC(=O)[C@H](CC(=O)O)NC(=O)[C@H](CC1CCCCC1)NC(=O)c1ccccc1` [896.31] (Bz-[Cha]DF[dP]-NH2), under setting [1], the “Relative Potency” value is recorded as 11. Still for that read-out and setting: for `CC(C)C[C@H](NC(=O)Cc1ccccc1)C(=O)N[C@@H](CC(=O)O)C(=O)N[C@@H](CCc1ccccc1)C(=O)N1CCC[C@@H]1C(N)=O` [1062.03] (PhAc-LD[hPhe][dP]-NH2) the value was 93.93. `CCCCCCCCCCOC(=O)C[C@H](NC(=O)[C@H](CC(C)C)NC(=O)Cc1ccccc1)C(=O)N[C@@H](Cc1ccccc1)C(=O)N1CCC[C@@H]1C(N)=O` [1068.09] (PhAc-LD(ODecyl)F[dP]-NH2): the “Relative Potency (prodrug compound)” value came out at 0. As to `CCCCCCCCCCCCOC(=O)C[C@H](NC(=O)[C@H](CC(C)C)NC(=O)Cc1ccccc1)C(=O)N[C@@H](Cc1ccccc1)C(=O)N1CCC[C@@H]1C(N)=O` [1068.10] (PhAc-LD(X5)F[dP]-NH2), the “Relative Potency (prodrug compound)” value stood at 0.

Take `CC(C)C[C@H](NC(=O)Cc1ccccc1)C(=O)N[C@@H](CC(=O)O)C(=O)N[C@H](C(=O)N1CCC[C@@H]1C(N)=O)c1ccccc1` [896.69] (PhAc-LD[Phg][dP]-NH2): under setting [1], the “Relative Potency” value was found to be 61.

Take `CC(C)C[C@H](NC(=O)Cc1ccccc1)C(=O)N[C@@H](CS(=O)(=O)O)C(=O)N[C@@H](Cc1ccccc1)C(=O)N1CCCCC1` [1026.06] (PhAc-Leu-[Cya]-Phe-Piperidide): under setting [1], the “Relative Potency” value stood at 0. As for `CCCCCCCCCC(=O)OC1CCN(C(=O)[C@H](Cc2ccccc2)NC(=O)[C@H](CC(=O)O)NC(=O)[C@H](CC(C)C)NC(=O)Cc2ccccc2)CC1` [1068.06], the “Relative Potency (prodrug compound)” value was “.63”.

On to `CC(C)C[C@H](NC(=O)Cc1ccccc1)C(=O)N[C@@H](CC(=O)O)C(=O)N(C)[C@@H](Cc1ccccc1)C(=O)N1CCC[C@@H]1C(N)=O` [1190.05] (PhAc-LD[NMeF][dP]-NH2), for which the “Relative Potency” value under setting [1] is listed as 0. With `CC(C)C[C@H](NC(=O)Cc1ccccc1)C(=O)N[C@@H](CC(=O)O)C(=O)N1C(=O)N(Cc2ccccc2)C(=O)[C@@H]1Cc1ccccc1` [1047.08], under setting [1], the “Relative Potency” value is “.38”.

With `CCCCCCCCCCCCCCCCCCOC(=O)C[C@H](NC(=O)[C@H](CC(C)C)NC(=O)Cc1ccccc1)C(=O)N[C@@H](Cc1ccccc1)C(=O)N1CCC[C@@H]1C(N)=O` [1068.12] (PhAc-LD(X8)F[dP]-NH2), the “Relative Potency (prodrug compound)” value came to 0.

For `O=C(O)C[C@H](NC1CCN(C(=O)Cc2ccccc2)CC1)C(=O)N[C@@H](Cc1ccccc1)C(=O)N1CCCC1` [992.01], the “Relative Potency” value under setting [1] amounted to 0. As for `CC(C)C[C@H](NC(=O)c1ccccc1)C(=O)N[C@@H](CC(=O)O)C(=O)N[C@H](C(=O)N1CCC[C@H]1C(N)=O)C(C)C` [896.35], the “Relative Potency” value under setting [1] is on record as 16.
